Read-outs that look alike come from different tables or passages of the source.
How the values were obtained:
Type in all cases: cell-based
lung HOP-62 = assay: COMPARE screening (NCI human cancer cell line screen), cytotoxicity GI50
Protocol: (§1) Selected compounds were tested for antiproliferative activity in the National Cancer Institute's developmental therapeutics assay 60 cell line screen (NCI60). The cells were incubated with the tested compounds at 100, 10, 1, 0.1, and 0.01 μM concentrations for 48 h before treatment with sulforhodamine B dye. Optical densities were recorded, and their ratios relative to that of the control were plotted as percentage growth against the log 10 of the tested compound concentrations.

melanoma UACC-62 = assay: as above
Protocol: as §1

colon HCT-116 = assay: as above
Protocol: as §1

ovarian OVCAR-3 = assay: as above
Protocol: as §1

renal SN12C = assay: as above
Protocol: as §1

prostate DU-145 = assay: as above
Protocol: as §1

CNS SF-539 = assay: as above
Protocol: as §1

breast MDA-MB-435 = assay: as above
[1] = tested on: all human cancer cell lines successfully tested; assay: NCI screen mean graph midpoint (MGM) for growth inhibition
Protocol: COMPARE screening. The compounds described herein were examined for antiproliferative activity against the human cancer cell lines in the National Cancer Institute screen (COMPARE screening), in which the activity of each compound was evaluated with approximately 55 different cancer cell lines of diverse tumor origins. […] Therefore, the MGM value represents an overall assessment of toxicity of the compound across numerous cell lines.
as §1
The cytotoxicities of the compounds to cultured cancer cells were measured in the National Cancer Institute's 60 cell line assay (a.k.a. NCI-60).

[2] = Table 1, average GI50 of all cell lines tested (approximately 55), test range 10^−8 to 10^−4 molar
[3] = Homo sapiens, HOP-62, read-out: cytotoxicity (GI50) lung HOP-62
[4] = Homo sapiens, UACC-62, read-out: cytotoxicity (GI50) melanoma UACC-62
[5] = Homo sapiens, HCT-116, read-out: cytotoxicity (GI50) colon HCT-116
[6] = Homo sapiens, OVCAR-3, read-out: cytotoxicity (GI50) ovarian OVCAR-3
[7] = Homo sapiens, SN12C, read-out: cytotoxicity (GI50) renal SN12C
[8] = Homo sapiens, DU-145, read-out: cytotoxicity (GI50) prostate DU-145
[9] = Homo sapiens, CNSSF-539, read-out: cytotoxicity (GI50) CNS SF-539
[10] = Homo sapiens, MDA-MB-435, read-out: cytotoxicity (GI50) breast MDA-MB-435
[11] = all human cancer cell lines successfully tested

Compound | GI50 (lung HOP-62) [µM] | GI50 (melanoma UACC-62) [nM] | GI50 (colon HCT-116) [µM] | GI50 (ovarian OVCAR-3) [µM] | GI50 (renal SN12C) [nM] | GI50 (prostate DU-145) [µM] | GI50 (CNS SF-539) [µM] | GI50 (breast MDA-MB-435) [µM] | MGM (mean GI50 across cell lines) [1, 2] [nM] | MGM (mean graph midpoint for growth inhibition) [1, 2] [µM] | further results
O=C1c2ccccc2-c2oc(=O)c3cc4c(cc3c21)OCO4 [Compound 4b] | 53.7 | > 100000 | > 100 | > 100 | > 100000 | > 100 | > 100 | > 100 | 57500 | – | –
O=C1c2ccccc2-c2oc(=O)c3cc([N+](=O)[O-])ccc3c21 [Compound 4c, 3-nitrobenz[d]indeno[1,2-b]pyran-5,11-dione] | – | – | – | – | – | – | – | – | 64600 | – | GI50 (lung HOP-62; [3]): 18.2 µM; GI50 (melanoma UACC-62; [4]): 25100 nM; GI50 (colon HCT-116; [5]): 47.9 µM; GI50 (ovarian OVCAR-3; [6]): > 100 µM; GI50 (renal SN12C; [7]): > 100000 nM; GI50 (prostate DU-145; [8]): > 100 µM; GI50 (CNS SF-539; [9]): > 100 µM; GI50 (breast MDA-MB-435; [10]): > 100 µM
O=C1c2ccccc2-c2oc(=O)c3ccccc3c21 [Compound 4d, Benz[d]indeno[1,2-b]pyran-5,11-dione] | – | – | – | – | – | – | – | – | >100000 | – | GI50 (lung HOP-62; [3]): > 100 µM; GI50 (melanoma UACC-62; [4]): > 100000 nM; GI50 (colon HCT-116; [5]): > 100 µM; GI50 (ovarian OVCAR-3; [6]): > 100 µM; GI50 (renal SN12C; [7]): > 100000 nM; GI50 (prostate DU-145; [8]): > 100 µM; GI50 (CNS SF-539; [9]): > 100 µM; GI50 (breast MDA-MB-435; [10]): > 100 µM
CC(C)(C)OC(=O)NCCCCCCCCn1c2c(c3ccccc3c1=O)C(=O)c1ccccc1-2 [Compound 5ag, 6-(8′-tert-BOC-Aminooctyl)-5,6-dihydro-5,11-dioxo-11H-indeno[1,2-c]isoquinoline] | 10.7 | 15500 | 25.7 | – | > 50100 | > 50.1 | 8.71 | > 50.1 | 19900 | – | –
CC(C)(C)OC(=O)NCCCCCCCCCCn1c2c(c3ccccc3c1=O)C(=O)c1ccccc1-2 [Compound 5ai, 6-(10′-tert-BOC-Aminodecyl)-5,6-dihydro-5,1-dioxo-11H-indeno[1,2-c]isoquinoline] | 28.8 | 43600 | 60.3 | > 100 | > 100000 | 97.7 | 42.7 | > 100 | 52500 | – | –
CC(C)(C)OC(=O)NCCCCCCCCCCCn1c2c(c3ccccc3c1=O)C(=O)c1ccccc1-2 [Compound 5aj, 6-(11′-tert-BOC-Anminoundecyl)-5,6-dihydro-5,11-dioxo-11H-indeno[1,2-c]isoquinoline] | 20.9 | 24000 | 35.5 | 70.8 | > 100000 | 91.2 | 29.5 | > 100 | – | 42.6 ± 5.35 | –
CC(C)(C)OC(=O)NCCCCCCCCCCCCn1c2c(c3ccccc3c1=O)C(=O)c1ccccc1-2 [Compound 5ak, 6-(12′-tert-BOC-Aminododecyl)-5,6-dihydro-5,1-dioxo-11H-indeno[1,2-c]isoquinoline] | 32.4 | 27500 | > 100 | > 100 | > 100000 | 91.2 | 20.4 | > 100 | 51300 | – | –
Cl.NCCn1c2c(c3ccccc3c1=O)C(=O)c1ccccc1-2 [Compound 5al] | 0.62 | 920 | 0.27 | 0.71 | 490 | 0.76 | 0.21 | 0.92 | – | 0.530 ± 0.320 | –
Cl.NCCCn1c2c(c3ccccc3c1=O)C(=O)c1ccccc1-2 [Compound 5am] | 0.2 | 260 | 0.18 | 1.38 | 160 | 0.22 | 0.25 | 0.78 | – | 0.32 ± 0.23 | –
Cl.NCCCCn1c2c(c3ccccc3c1=O)C(=O)c1ccccc1-2 [Compound 5an] | 0.08 | 50 | 0.1 | 0.52 | 40 | 0.01 | 0.1 | 0.84 | – | 0.16 ± 0.01 | –
Cl.NCCCCCn1c2c(c3ccccc3c1=O)C(=O)c1ccccc1-2 [Compound 5ao, 6-(5-Aminopentyl)-5,6-dihydro-5,11-diketo-11H-indeno[1,2-c]isoquinoline Hydrochloride] | – | – | – | – | – | – | – | – | – | 0.471 ± 0.054 | GI50 (lung HOP-62; [3]): 0.288 µM; GI50 (melanoma UACC-62; [4]): 1350 nM; GI50 (colon HCT-116; [5]): 0.2 µM; GI50 (ovarian OVCAR-3; [6]): 0.708 µM; GI50 (renal SN12C; [7]): 398 nM; GI50 (prostate DU-145; [8]): 0.347 µM; GI50 (CNS SF-539; [9]): 0.871 µM; GI50 (breast MDA-MB-435; [10]): 1.35 µM
Cl.NCCCCCCn1c2c(c3ccccc3c1=O)C(=O)c1ccccc1-2 [Compound 5ap, 6-(6-Aminohexyl)-5,6-dihydro-5,11-diketo-11H-indeno[1,2-c]isoquinoline Hydrochloride] | – | – | – | – | – | – | – | – | 1320 | – | GI50 (lung HOP-62; [3]): 1.29 µM; GI50 (melanoma UACC-62; [4]): 1620 nM; GI50 (colon HCT-116; [5]): 0.912 µM; GI50 (ovarian OVCAR-3; [6]): 2 µM; GI50 (renal SN12C; [7]): 1320 nM; GI50 (prostate DU-145; [8]): 0.603 µM; GI50 (CNS SF-539; [9]): 1.23 µM; GI50 (breast MDA-MB-435; [10]): 2.04 µM
CN(C)CCCn1c2c(c3cc4c(cc3c1=O)OCO4)C(=O)c1ccccc1-2 [Compound 5b] | < 0.01 | 300 | < 0.01 | 2.63 | 23 | 2.04 | 2.69 | 3.02 | 525 | – | –
COc1ccc2c(c1)C(=O)c1c-2n(CCCN)c(=O)c2ccccc12.Cl [Compound 5bg] | < 0.01 | – | < 0.01 | 0.028 | < 10 | 0.014 | 0.038 | 0.059 | – | 0.048 ± 0.024 | –
O=C1c2ccccc2-c2c1c1ccc([N+](=O)[O-])cc1c(=O)n2CCCN1CCOCC1 [Compound 5bi] | 0.021 | 380 | 0.038 | – | 309 | 0.085 | 0.095 | 1.23 | – | 0.632 ± 0.029 | –
COc1ccc2c(c1)C(=O)c1c-2n(CCCNCCO)c(=O)c2cc([N+](=O)[O-])ccc12.Cl [Compound 5bm] | < 0.01 | < 10 | – | < 0.01 | 12 | < 0.03 | < 0.01 | < 0.01 | 16 | – | –
Cl.O=C1c2ccccc2-c2c1c1ccccc1c(=O)n2CCCNCCO [Compound 5bo] | 0.195 | 178 | – | 0.55 | 269 | 0.174 | 0.55 | 0.49 | 339 | – | –
COc1cc2c3c(n(CCCn4ccnc4)c(=O)c2cc1OC)-c1cc2c(cc1C3=O)OCO2.Cl [Compound 5l, Hydrochloride] | < 0.01 | < 10 | < 0.01 | – | < 10 | < 0.01 | 0.037 | 0.02 | – | – | GI50 (ovarian OVCAR-3; Table 1, concentration corresponding to 50% growth inhibition, read-out: cytotoxicity (GI50) ovarian OVCAR-3): 0.085 µM
COc1cc2c3c(n(CCCNCCCNCCCn4c5c(c6ccccc6c4=O)C(=O)c4ccccc4-5)c(=O)c2cc1OC)-c1cc2c(cc1C3=O)OCO2.O=C(O)C(F)(F)F.O=C(O)C(F)(F)F [Compound 17a, 1,3-{6-(3-Amino-1-propyl)-5,6-dihydro-2,3-dimethoxy-8,9-methylenedioxy-5,1-dioxo-11H-indeno[1,2-c]isoquinoline}-{5′,6′-Dihydro-6′-(3′-amino-1′-propyl)-5′,11′-dioxo-11′H-indeno[1,2-c]isoquinoline}propane Bis(trifluoroacetate)] | – | – | – | – | – | – | – | – | – | – | GI50 (lung HOP-62; lung HOP-62, concentration corresponding to 50% growth inhibition, read-out: cytotoxicity (GI50 in μM) lung HOP-62): 0.191 µM; GI50 (colon HCT-116; colon HCT-116, concentration corresponding to 50% growth inhibition, read-out: cytotoxicity (GI50 in μM) colon HCT-116): 0.022 µM; GI50 (ovarian OVCAR-3; ovarian OVCAR-3, concentration corresponding to 50% growth inhibition, read-out: cytotoxicity (GI50 in μM) ovarian OVCAR-3): < 0.01 µM; GI50 (prostate DU-145; prostate DU-145, concentration corresponding to 50% growth inhibition, read-out: cytotoxicity (GI50 in μM) prostate DU-145): 0.01 µM; GI50 (CNS SF-539; CNS SF-539, concentration corresponding to 50% growth inhibition, read-out: cytotoxicity (GI50 in μM) CNS SF-539): < 0.01 µM; GI50 (breast MDA-MB-435; breast MDA-MB-435, concentration corresponding to 50% growth inhibition, read-out: cytotoxicity (GI50 in μM) breast MDA-MB-435): 0.155 µM; MGM (mean graph midpoint for growth inhibition) [1, 11]: 0.046 ± 0.010 µM
Bis-1,2-{(5,6-dihydro-5,11-diketo-11H-indeno[1,2-c]isoquinoline)-6-ethylamino-ethylamino}ethane Tetra(trifluoroacetate) [Compound 14j] | 0.977 | – | 0.2 | 0.032 | – | 0.085 | 0.012 | 0.126 | – | – | MGM (mean graph midpoint for growth inhibition) [1, 11]: 0.262 ± 0.100 µM

Source: patent publication US9796753B2, “N-substituted indenoisoquinolines and syntheses thereof” (Purdue Research Foundation, priority 2005, dated 2017)
